From patent US20090042849A1, “Phosphorylation of 5-lipoxygenase at ser523 and uses thereof” (priority 2006, published 2009)
Entries after “also recorded” stand apart in the source; their conditions may differ.

Experiments:
[1] = test system: 5LO; experiment: immunoblotting of 5LO in cytosolic, membranous and nuclear fractions of myocardial cells; format: in vivo; conditions: rat myocardium
Method: Rats received: 1) […] (20 mg/kg) or 6) water alone (control). PIO and ATV were suspended in water and administered by gastric gavage once daily for 3 days; H-89 was dissolved in DMSO (final concentration 5% v/v) and injected intraperitoneally on the third day. Rats in groups 5 and 6 received water by gastric gavage once daily for 3 days. Rats in groups 1, 2 and 6 received intraperitoneal inkection of DMSO 5%. Sixteen hours after the injection, rats were euthanized and the hearts explanted for further analyses. In another experiment, rats received 3-day pretreatment with: 1) […]); or 5) LPS (10 mg/kg). Myocardial samples (0.25 g) were homogenized, mixed with Buffer A Mix [Hepes (pH 7.9) 10 mM, KCl 10 mM, EDTA 10 mM, DTT 100 mM, protease inhibitor cocktail, and IGEPAL 10%, (Sigma, St Lois, Mo.)], homogenized again and incubated for 15 min on ice, and centrifuged at 850×g for 10 min at 4° C. The supernatant was discharged, Buffer A Mix was added again and the samples incubated for an additional 15 min on ice, and centrifuged at 15,000×g for 3 min at 40 C. The supernatant contains the cytosolic fraction was collected. The pellet was resuspended in 150 μl of Buffer B Mix [Hepes (pH 7.9) 20 mM, NaCl 0.4M, EDTA 1 mM, glycerol 10%, protease inhibitor cocktail, and IGEPAL 10%], the tubes were shaked on ice at 200 rpm for 2 h, centrifuged at 15,000×g for 5 min at 4° C., and supernatants were collected as the nuclear fraction. […] The hearts were rapidly explanted, rinsed in cold PBS (pH 7.4), containing 0.16 mg/ml heparin to remove red blood cells and clots, frozen in liquid nitrogen and stored at -70° C. Myocardial samples from the anterior left ventricular wall were homogenized in RIPA lysis buffer (Santa Cruz Biotechnology, Santa Cruz, Calif.) and centrifuged at 14,000 rpm for 15 min at 4° C. The supernatant was collected and the total protein concentration was determined using the Lowry protein assay. […] The protein samples with loading buffer were run in 4-20% Tri-HCl Ready Gel at a 100V for 2 h until the desired molecular weight bands were separated. After electrophoresis, the gel was equilibrated in transfer buffer (25 mM Tris, 193 mM glycine, 0.1% SDS and 10% methanol) and the proteins were transferred to nitrocellulose membrane. The protein signals were quantified by an image-scanning-densitometer and the strength of each protein signal was normalized to the corresponding b-actin stain signal. Data are expressed as a ratio between the protein and the corresponding b-actin signal density.

[2] = test system: 5LO (Ser523 phosphorylated 5LO); experiment: immunoblotting of total 5LO and P-5LO in rat myocardium (whole cell homogenate); format: in vivo; conditions: for myocardial levels of Ser523 phosphorylated 5LO (P-5LO) / myocardial total 5LO levels: whole cell homogenate, PIO or ATV 10 mg/kg/d 3 days, H-89 20 mg/kg i.p.
Method: Rats received: 1) PIO (10 mg/kg/d); 2) ATV (10 mg/kg/d); 3) PIO (10 mg/kg/d)+H89 (20 mg/kg); 4) ATV (10 mg/kg/d)+H89 (20 mg/kg); 5) H89 (20 mg/kg) or 6) water alone (control). PIO and ATV were suspended in water and administered by gastric gavage once daily for 3 days; H-89 was dissolved in DMSO (final concentration 5% v/v) and injected intraperitoneally on the third day. Rats in groups 5 and 6 received water by gastric gavage once daily for 3 days. Rats in groups 1, 2 and 6 received intraperitoneal inkection of DMSO 5%. Sixteen hours after the injection, rats were euthanized and the hearts explanted for further analyses. In another experiment, rats received 3-day pretreatment with: 1) water (sham); 2) PIO (10 mg/kg/d); 3) ATV (10 mg/kg/d); 4) PIO (10 mg/kg/d)+ATV (10 mg/kg/d); or 5) LPS (10 mg/kg).
PIO and ATV were administered by oral gavage once daily as above; LPS was administered intravenously. In addition, rats in groups 1-4 received intravenous saline on the […], whereas rats in group 1 and 5 received water by gastric gavage once daily for 3 days and the LPS injection on the third day. Sixteen hours after the injection, rats were euthanized and the hearts explanted for further analyses.
The hearts were rapidly explanted, rinsed in cold PBS (pH 7.4), containing 0.16 mg/ml heparin to remove red blood cells and clots, frozen in liquid nitrogen and stored at −70° C. Myocardial samples from the anterior left ventricular wall were homogenized in RIPA lysis buffer (Santa Cruz Biotechnology, Santa Cruz, Calif.) and centrifuged at 14,000 rpm for 15 min at 4° C. The supernatant was collected and the total protein concentration was determined using the Lowry protein assay. […] The protein samples with loading buffer were run in 4-20% Tri-HCl Ready Gel at a 100V for 2 h until the desired molecular weight bands were separated. After electrophoresis, the gel was equilibrated in transfer buffer (25 mM Tris, 193 mM glycine, 0.1% SDS and 10% methanol) and the proteins were transferred to nitrocellulose membrane. The protein signals were quantified by an image-scanning-densitometer and the strength of each protein signal was normalized to the corresponding b-actin stain signal. Data are expressed as a ratio between the protein and the corresponding b-actin signal density.

| SMILES | 5LO levels in the cytosolic fraction [1] | 5LO levels in the membranous fraction [1] | 5LO phosphorylation, PIO and ATV compared with LPS ([2]; PIO, ATV 10 mg/kg/d, LPS 10 mg/kg i.v.) | myocardial levels of Ser523 phosphorylated 5LO (P-5LO) [2] | myocardial total 5LO levels [2] | effect on the increase in P-5LO by PIO and ATV ([2]; H-89 20 mg/kg i.p. with PIO or ATV 10 mg/kg/d) |
| --- | --- | --- | --- | --- | --- | --- |
| CC(C)c1c(C(=O)Nc2ccccc2)c(-c2ccccc2)c(-c2ccc(F)cc2)n1CCC(O)CC(O)CC(=O)O (stereo not shown) [ATV, 7-[2-(4-fluorophenyl)-5-(1-methylethyl)-3-phenyl-4-(phenylcarbamoyl)-1H-pyrrol-1-yl]-3,5-dihydroxy-heptanoic acid] | small, yet significant increase | no detectable effect | significantly greater increase | augment; also recorded: increased | without detectable change; also recorded: did not affect | – |
| O=S(=O)(NCCNC/C=C/c1ccc(Br)cc1)c1cccc2cnccc12 [H-89] | no significant effect | no significant effect | – | did not affect | did not affect | completely blocked |
